Measurements published in article PMC3970552 (Neuropharmacology, 2013).
Values belong to the compound of their own block, whether it stands above or below them.

Columns and labels:
α3G181Cβ2 nAChR [1] = biological target: T1, α3G181Cβ2 nAChR (Rattus norvegicus, UniProt P04757+P12390, G208C); assay: MTS-dansyl treatment, evoked currents; format: cell-based; conditions: 100 μM ACh currents
α3L158Cβ2 nAChR [2] = biological target: T2, α3L158Cβ2 nAChR (Rattus norvegicus, UniProt P04757+P12390, L185C); assay: MTS-dansyl treatment, evoked currents; format: cell-based; conditions: 5 μM ACh currents
T2 sequence (P04757 26-499 L185C): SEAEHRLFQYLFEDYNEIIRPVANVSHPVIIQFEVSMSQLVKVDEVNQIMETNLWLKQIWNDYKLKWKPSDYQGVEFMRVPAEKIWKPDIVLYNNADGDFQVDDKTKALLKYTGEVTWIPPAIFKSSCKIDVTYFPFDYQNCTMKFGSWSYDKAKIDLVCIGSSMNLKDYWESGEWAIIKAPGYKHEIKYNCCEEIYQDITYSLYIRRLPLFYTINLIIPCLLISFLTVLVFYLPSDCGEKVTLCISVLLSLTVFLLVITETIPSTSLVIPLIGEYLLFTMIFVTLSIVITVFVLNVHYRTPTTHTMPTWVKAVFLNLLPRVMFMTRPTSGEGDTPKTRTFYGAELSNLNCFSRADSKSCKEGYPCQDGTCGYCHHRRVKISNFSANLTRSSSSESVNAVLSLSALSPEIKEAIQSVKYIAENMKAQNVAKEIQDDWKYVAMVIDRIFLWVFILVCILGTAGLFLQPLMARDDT
T2 sequence (P12390 25-500): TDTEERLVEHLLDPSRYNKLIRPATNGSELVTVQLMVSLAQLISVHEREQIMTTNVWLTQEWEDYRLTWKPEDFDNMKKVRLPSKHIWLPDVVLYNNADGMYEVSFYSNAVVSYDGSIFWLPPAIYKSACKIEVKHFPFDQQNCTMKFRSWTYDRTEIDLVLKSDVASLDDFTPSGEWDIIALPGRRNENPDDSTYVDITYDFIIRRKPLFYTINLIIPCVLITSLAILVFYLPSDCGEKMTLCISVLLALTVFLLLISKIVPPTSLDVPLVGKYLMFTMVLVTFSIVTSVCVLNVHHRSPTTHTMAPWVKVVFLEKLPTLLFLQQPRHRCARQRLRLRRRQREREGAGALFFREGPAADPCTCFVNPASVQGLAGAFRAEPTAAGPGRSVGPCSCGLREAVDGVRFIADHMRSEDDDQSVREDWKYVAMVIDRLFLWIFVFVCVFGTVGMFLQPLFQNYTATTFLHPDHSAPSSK

α3L158CG181Cβ2 nAChR [3] = biological target: T3, α3L158CG181Cβ2 nAChR (Rattus norvegicus, UniProt P04757+P12390, G208C/L185C); assay: MTS-dansyl probing of free sulfhydryls, evoked currents; format: cell-based
T3 sequence (P04757 26-499 L185C/G208C): as the sequence (P04757 26-499 L185C) above, with G183C counted along it
T3 sequence (P12390 25-500): as the sequence (P12390 25-500) above

α3L158CK183Cβ2 nAChR [4] = biological target: T4, α3L158CK183Cβ2 nAChR (Rattus norvegicus, UniProt P04757+P12390, K210C/L185C); assay: Two-electrode voltage-clamp concentration-response in Xenopus oocytes; format: cell-based
T4 sequence (P04757 26-499 L185C/K210C): as the sequence (P04757 26-499 L185C) above, with K185C counted along it
T4 sequence (P12390 25-500): as the sequence (P12390 25-500) above

α3L158CG181Cβ2 nAChR [5] = biological target: T3, α3L158CG181Cβ2 nAChR; assay: as above; format: cell-based
α3K183Cβ2 nAChR = α3K183Cβ2 nAChR (Rattus norvegicus, UniProt P04757+P12390, K210C); assay: as above; format: cell-based
α3K183Cβ2 nAChR, sequence (P04757 26-499 K210C): as the sequence (P04757 26-499 L185C) above, with C160L, K185C counted along it
α3K183Cβ2 nAChR, sequence (P12390 25-500): as the sequence (P12390 25-500) above

α3G181Cβ2 nAChR [6] = biological target: T1, α3G181Cβ2 nAChR; assay: as above; format: cell-based
α3L158Cβ2 nAChR [7] = biological target: T2, α3L158Cβ2 nAChR; assay: as above; format: cell-based
α3L158CA179Cβ2 nAChR [8] = biological target: T5, α3L158CA179Cβ2 nAChR (Rattus norvegicus, UniProt P04757+P12390, A206C/L185C); assay: as above; format: cell-based; conditions: naïve oocytes
T5 sequence (P04757 26-499 L185C/A206C): as the sequence (P04757 26-499 L185C) above, with A181C counted along it
T5 sequence (P12390 25-500, stated change not applied): as the sequence (P12390 25-500) above

wild type α3β2 nAChR = wild type α3β2 nAChR (Rattus norvegicus, UniProt P04757+P12390); conditions: ref Cesa et al., 2012, cited from earlier work
wild type α3β2 nAChR, sequence (P04757 26-499): as the sequence (P04757 26-499 L185C) above, with C160L counted along it
wild type α3β2 nAChR, sequence (P12390 25-500): as the sequence (P12390 25-500) above

α3A179Cβ2 nAChR = α3A179Cβ2 nAChR (Rattus norvegicus, UniProt P04757+P12390, A179C/A206C); assay: Two-electrode voltage-clamp concentration-response in Xenopus oocytes; format: cell-based
α3A179Cβ2 nAChR, sequence (P04757 26-499 A179C/A206C): as the sequence (P04757 26-499 L185C) above, with A154C, C160L, A181C counted along it
α3A179Cβ2 nAChR, sequence (P12390 25-500, stated change not applied): as the sequence (P12390 25-500) above

α3L158Cβ2 nAChR [9] = biological target: T2, α3L158Cβ2 nAChR; assay: Oxidation/reduction treatment, evoked currents; format: cell-based; conditions: ACh + Mor currents
α3L158CG181Cβ2 nAChR [10] = biological target: T3, α3L158CG181Cβ2 nAChR; assay: Oxidation/reduction treatment; format: cell-based; conditions: for ACh/Mor-evoked current, % of the control: after H2O2 + ACh + Mor oxidation
α3L158CA179Cβ2 nAChR [11] = biological target: T5, α3L158CA179Cβ2 nAChR; assay: Oxidation/reduction treatment; format: cell-based; conditions: for IDTT/Icontrol: 40 μM DTT; for ITCEP/Icontrol: 40 μM TCEP
α3L158CK183Cβ2 nAChR [12] = biological target: T4, α3L158CK183Cβ2 nAChR; assay: Oxidation/reduction treatment; format: cell-based; conditions: for IDTT/Icontrol: DTT treatment; for decrease of ACh-evoked currents: 125 μM ACh challenge
α3G181Cβ2 nAChR [13] = biological target: T1, α3G181Cβ2 nAChR; assay: Oxidation/reduction treatment, evoked currents; format: cell-based; conditions: ACh + Mor currents
[14] = ACh titration + 10 μM Mor, naïve oocytes
[15] = Mor alone, relative to internal ACh control
[16] = ACh + 10 μM Mor, asymptote at saturating ACh, normalized to highest ACh alone
[17] = DTT after treatment with H2O2 only
[18] = ACh alone, Hill fit, naïve oocytes

T1 sequence (P04757 26-499 G208C): as the sequence (P04757 26-499 L185C) above, with C160L, G183C counted along it
T1 sequence (P12390 25-500): as the sequence (P12390 25-500) above

Structure (SMILES): CN(C)c1cccc2c(S(=O)(=O)NCCSS(C)(=O)=O)cccc12 [MTS-dansyl, dansylamidoethyl methanesthiosulfonate]
decrease of ACh currents after MTS-dansyl (α3G181Cβ2 nAChR [1]): 21 ± 4%
decrease of ACh currents after MTS-dansyl (α3L158Cβ2 nAChR [2]): 44 ± 2%
decrease of ACh/Mor-evoked currents by MTS (α3L158CG181Cβ2 nAChR [3]; after H2O2 + ACh + Mor oxidation, 5 μM ACh + 10 μM Mor): 8%
decrease of ACh current after MTS (α3L158CG181Cβ2 nAChR [3]; after H2O2 alone treatment, 5 μM ACh): 27%
decrease of ACh + Mor current after MTS (α3L158CG181Cβ2 nAChR [3]; after H2O2 alone treatment, 5 μM ACh + 10 μM Mor): 21%
decrease of ACh/Mor-evoked currents by MTS (α3L158CG181Cβ2 nAChR [3]; after standard oxidation then 200–300 sec wash, 5 μM ACh + 10 μM Mor): 14%
decrease of ACh-evoked current after MTS-dansyl (α3L158CG181Cβ2 nAChR [3]; naive oocytes, 50 μM MTS-dansyl 2 min, 5 μM ACh): 33%
decrease of ACh/Mor-evoked current after MTS-dansyl (α3L158CG181Cβ2 nAChR [3]; naive oocytes, 50 μM MTS-dansyl 2 min, 5 μM ACh + 10 μM Mor): 14%

Structure (SMILES): Cc1ccsc1C=CC1=NCCCN1C.O=C(O)C(O)C(O)C(=O)O [Mor, 1,4,5,6-tetrahydro-1-methyl-2-(2-[3-methyl-2-thienyl]ethenyl)pyrimidine, tartrate salt]
Mor potentiation (α3L158CK183Cβ2 nAChR [4]; ACh + 10 μM Mor vs ACh alone): effectively no potentiation
Mor Modulation Response nH (α3L158CK183Cβ2 nAChR [4]; [14]): 0.95 ± 0.16
EC50 (α3L158CG181Cβ2 nAChR [5]): 28 ± 10 µM
Mor Modulation Response nH (α3L158CG181Cβ2 nAChR [5]; [14]): 1.18 ± 0.25
Emax, activation by Mor alone (α3L158CG181Cβ2 nAChR [5]; [15]): 0.074 ± 0.009
Mor potentiation (α3K183Cβ2 nAChR; ACh + 10 μM Mor vs ACh alone): negligible Mor potentiation
Mor Modulation Response Emax (α3K183Cβ2 nAChR; [16]): 0.97 ± 0.02
Mor Modulation Response nH (α3K183Cβ2 nAChR; ACh titration + 10 μM Mor): 1.61 ± 0.22
EC50 (α3G181Cβ2 nAChR [6]): 41 ± 26 µM
Mor Modulation Response Emax (α3G181Cβ2 nAChR [6]; [16]): 2.3 ± 0.1
Mor Modulation Response nH (α3G181Cβ2 nAChR [6]; ACh titration + 10 μM Mor): 1.08 ± 0.12
Emax, activation by Mor alone (α3G181Cβ2 nAChR [6]; [15]): 0.32 ± 0.05
EC50 (α3L158Cβ2 nAChR [7]): 12 ± 7 µM
Mor Modulation Response Emax (α3L158Cβ2 nAChR [7]; [16]): 1.6 ± 0.1
Mor Modulation Response nH (α3L158Cβ2 nAChR [7]; ACh titration + 10 μM Mor): 1.47 ± 0.39
Emax, activation by Mor alone (α3L158Cβ2 nAChR [7]; [15]): 0.021 ± 0.002
Mor Modulation Response nH (α3L158CA179Cβ2 nAChR [8]; ACh titration + 10 μM Mor): 1.70 ± 0.50
Mor Modulation Response nH (wild type α3β2 nAChR; ACh titration + 10 μM Mor): 1.37 ± 0.80
Mor Modulation Response Emax (α3A179Cβ2 nAChR; [16]): 1.6 ± 0.1
Mor Modulation Response nH (α3A179Cβ2 nAChR; ACh titration + 10 μM Mor): 1.79 ± 0.75

Structure (SMILES): O[C@@H](CS)[C@@H](O)CS [DTT]
IDTT/IH2O2 (α3L158Cβ2 nAChR [9]): 0.96 ± 0.17
increase of ACh-evoked current (α3L158CG181Cβ2 nAChR [10]; 40 μM DTT 5 min on naive oocytes, prior to H2O2, challenge 100 μM ACh): 25%
IDTT/Icontrol (α3L158CA179Cβ2 nAChR [11]; 24 μM ACh): 1.30 ± 0.08
IDTT/Icontrol (α3L158CA179Cβ2 nAChR [11]; 24 μM ACh + 10 μM Mor): 1.26 ± 0.07
IDTT/Icontrol (ACh + Mor) (α3L158CA179Cβ2 nAChR [11]; [17]): 1.06 ± 0.06
IDTT/Icontrol (ACh) (α3L158CA179Cβ2 nAChR [11]; [17]): 0.99 ± 0.04
IDTT/Icontrol (ACh + Mor) (α3L158CK183Cβ2 nAChR [12]; DTT post-oxidation): 1.02 ± 0.02
IDTT/Icontrol (ACh) (α3L158CK183Cβ2 nAChR [12]; DTT post-oxidation): 0.97 ± 0.03
IDTT/Icontrol (α3L158CK183Cβ2 nAChR [12]; 125 μM ACh): 1.10 ± 0.01
IDTT/Icontrol (α3L158CK183Cβ2 nAChR [12]; 125 μM ACh + 10 μM Mor): 1.19 ± 0.03
IDTT/IH2O2 (α3G181Cβ2 nAChR [13]): 0.96 ± 0.06

Structure (SMILES): O=C(O)CCP(CCC(=O)O)CCC(=O)O [TCEP, tris(2-carboxyethyl)phosphine]
ITCEP/Icontrol (α3L158CA179Cβ2 nAChR [11]; ACh): 1.21 ± 0.04
ITCEP/Icontrol (α3L158CA179Cβ2 nAChR [11]; ACh + Mor): 1.24 ± 0.05

Structure (SMILES): OO [H2O2]
IH2O2/Icontrol (α3L158Cβ2 nAChR [9]): 0.78 ± 0.08
decrease of ACh-evoked current (α3L158CG181Cβ2 nAChR [10]; 4.4 mM H2O2 + 100 μM ACh + 10 μM Mor, 5 min, challenge 100 μM ACh): 26%
decrease of ACh + Mor-evoked current (α3L158CG181Cβ2 nAChR [10]; 4.4 mM H2O2 + 100 μM ACh + 10 μM Mor, 5 min, challenge 100 μM ACh + 10 μM Mor): 26%
effect on ACh-evoked currents (α3L158CG181Cβ2 nAChR [10]; 4.4 mM H2O2 alone, 5 min, challenge 100 μM ACh): no apparent effect
decrease of currents evoked by ACh and Mor (α3L158CG181Cβ2 nAChR [10]; 4.4 mM H2O2 alone, 5 min, challenge 100 μM ACh + 10 μM Mor): 24%
decrease of ACh-evoked current relative to post-reduction value (α3L158CG181Cβ2 nAChR [10]; H2O2 + ACh + Mor oxidation after DTT, challenge 100 μM ACh): 52%
decrease of ACh/Mor-evoked current relative to post-reduction value (α3L158CG181Cβ2 nAChR [10]; H2O2 + ACh + Mor oxidation after DTT, challenge 100 μM ACh + 10 μM Mor): 46%
Ipost-oxidation/Icontrol (α3L158CG181Cβ2 nAChR [10]; H2O2 + ACh + Mor treatment, 5 μM ACh currents (MTS probing experiments)): 0.66 ± 0.05
ACh/Mor-evoked current, % of the control (α3L158CG181Cβ2 nAChR [10]; challenges every 100 sec, first response): about 60%
ACh/Mor-evoked current, % of the control (α3L158CG181Cβ2 nAChR [10]; five successive challenges in 500 sec): ≤ 80%
decrease of evoked currents (α3L158CA179Cβ2 nAChR [11]; two oxidation conditions (H2O2 alone; H2O2 + ACh + Mor), two challenges (24 μM ACh; 24 μM ACh + 10 μM Mor)): 25–28%
decrease of ACh-evoked currents (α3L158CK183Cβ2 nAChR [12]; H2O2 + ACh + Mor treatment): 28%
decrease of ACh-evoked currents (α3L158CK183Cβ2 nAChR [12]; H2O2 alone treatment): 13%
IH2O2/Icontrol (α3G181Cβ2 nAChR [13]): 0.94 ± 0.03

ACh Response nH (α3L158CK183Cβ2 nAChR [4]; [18]): 1.11 ± 0.14 [6]
ACh Response nH (α3L158CG181Cβ2 nAChR [5]; [18]): 0.93 ± 0.23 [5]
ACh Response nH (α3K183Cβ2 nAChR; ACh alone, Hill fit): 2.43 ± 0.78 [9]
ACh Response nH (α3G181Cβ2 nAChR [6]; ACh alone, Hill fit): 1.10 ± 0.11 [5]
ACh Response nH (α3L158Cβ2 nAChR [7]; ACh alone, Hill fit): 0.80 ± 0.11 [6] ^b
ACh Response nH (α3L158CA179Cβ2 nAChR [8]; ACh alone, Hill fit): 1.19 ± 0.20 [7]
ACh Response nH (α3A179Cβ2 nAChR; ACh alone, Hill fit): 0.79 ± 0.08 [8]
Structure (SMILES): CC(=O)OCC[N+](C)(C)C [ACh, acetylcholine]
ACh Response nH (wild type α3β2 nAChR; ACh alone, Hill fit): 0.75 ± 0.07
